According to the supplement of paper PMC10307832:

Each cell line was assayed with Cc1ccccc1C(C(=O)NC1CCCCC1)N(C(=O)Cn1ccnc1C)c1cccc(F)c1 [IDH-C35] (assay: relative viability (nuclei count vs DMSO), 5 days (fraction); higher = more cells survive). Details: 0.08 µM.
How it was run: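 Vehicle-anchored 1536-well plates of lung cancer cell lines, held overnight at 37 °C, were pinned with five library-drug doses (not always all listed) spaced by √10. No medium change followed over the next 5 days, after which the cells were fixed, permeabilised and Hoechst-stained together and imaged at 4×. Nuclei were counted with MetaXpress, and viability is treated-well nuclei over vehicle-well nuclei, taken as a median across plates. Plates passed with control CV below 25% and at least one doubling.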
With NCI-H2085 the relative viability was 1.01.
Calu-6 was tested, and the relative viability was 1.05.
For HCC-366, the relative viability was 1.04.
With NCI-H1666 the relative viability was 1.
Cell Line NCI-H596 has a relative viability of 0.884.
For LK-2, the relative viability was 0.881.
With NCI-H2087 the relative viability was 1.2.
Cell Line SK-MES-1 has a relative viability of 0.983.
H3255 was tested, and the relative viability was 0.955.
COR-L23 gave a relative viability of 1.1.
COR-L 105 gave a relative viability of 0.897.
IA-LM was tested, and the relative viability was 0.947.
LOU-NH91 gave a relative viability of 0.945.
NCI-H2170 was tested, and the relative viability was 0.971.
NCI-H2405 was tested, and the relative viability was 1.05.
In the case of HOP-62, the relative viability is reported as 1.03.
HCC-44 was tested, and the relative viability was 0.949.
With A549 the relative viability was 1.
With LU99A the relative viability was 1.04.
BEN gave a relative viability of 0.964.
Work on HARA yielded a relative viability of 1.
Cell Line HCC-78 has a relative viability of 0.925.
Cell Line NCI-H322M has a relative viability of 0.92.
LCLC-97TM1 showed a relative viability of 0.807.
NCI-H2009 gave a relative viability of 1.03.
A-427 gave a relative viability of 1.06.
Cell Line NCI-H661 has a relative viability of 0.994.
In the case of NCI-H1734, the relative viability is reported as 1.06.
NCI-H460 was tested, and the relative viability was 1.01.
NCI-H2347 gave a relative viability of 1.04.
In the case of SK-LU-1, the relative viability is reported as 1.01.

Same assay, conditions: 0.253 µM
In the case of NCI-H2085, the relative viability is reported as 1.
Calu-6 was tested, and the relative viability was 0.968.
HCC-366 gave a relative viability of 1.04.
Work on NCI-H1666 yielded a relative viability of 0.956.
NCI-H596 showed a relative viability of 0.938.
LK-2 was tested, and the relative viability was 0.995.
Cell Line NCI-H2087 has a relative viability of 1.07.
SK-MES-1 was tested, and the relative viability was 0.984.
For H3255, the relative viability was 1.
COR-L23 was tested, and the relative viability was 1.08.
COR-L 105 was tested, and the relative viability was 0.921.
Work on IA-LM yielded a relative viability of 1.02.
LOU-NH91 showed a relative viability of 0.986.
For NCI-H2170, the relative viability was 0.948.
For NCI-H2405, the relative viability was 1.
For HOP-62, the relative viability was 1.03.
In the case of HCC-44, the relative viability is reported as 0.947.
A549 was tested, and the relative viability was 0.966.
LU99A was tested, and the relative viability was 0.992.
BEN was tested, and the relative viability was 0.97.
Work on HARA yielded a relative viability of 0.949.
In the case of HCC-78, the relative viability is reported as 0.979.
Work on NCI-H322M yielded a relative viability of 0.973.
Work on LCLC-97TM1 yielded a relative viability of 1.03.
With NCI-H2009 the relative viability was 1.03.
A-427 gave a relative viability of 1.01.
Work on NCI-H661 yielded a relative viability of 0.971.
Cell Line NCI-H1734 has a relative viability of 1.04.
NCI-H460 showed a relative viability of 0.99.
In the case of NCI-H2347, the relative viability is reported as 1.06.
Work on SK-LU-1 yielded a relative viability of 0.986.

Same assay, conditions: 0.8 µM
NCI-H2085 showed a relative viability of 0.957.
In the case of Calu-6, the relative viability is reported as 1.03.
For HCC-366, the relative viability was 0.97.
Cell Line NCI-H1666 has a relative viability of 0.965.
In the case of NCI-H596, the relative viability is reported as 0.972.
In the case of LK-2, the relative viability is reported as 0.996.
For NCI-H2087, the relative viability was 0.945.
Cell Line SK-MES-1 has a relative viability of 0.985.
H3255 was tested, and the relative viability was 0.988.
Work on COR-L23 yielded a relative viability of 1.01.
In the case of COR-L 105, the relative viability is reported as 0.926.
For IA-LM, the relative viability was 0.858.
In the case of LOU-NH91, the relative viability is reported as 0.987.
NCI-H2170 was tested, and the relative viability was 1.02.
For NCI-H2405, the relative viability was 0.971.
With HOP-62 the relative viability was 0.957.
With HCC-44 the relative viability was 0.971.
For A549, the relative viability was 0.956.
Work on LU99A yielded a relative viability of 0.895.
Cell Line BEN has a relative viability of 0.904.
Work on HARA yielded a relative viability of 0.915.
Work on HCC-78 yielded a relative viability of 0.896.
Cell Line NCI-H322M has a relative viability of 0.933.
In the case of LCLC-97TM1, the relative viability is reported as 0.936.
NCI-H2009 was tested, and the relative viability was 1.01.
In the case of A-427, the relative viability is reported as 0.926.
NCI-H661 showed a relative viability of 0.978.
For NCI-H1734, the relative viability was 1.
NCI-H460 gave a relative viability of 1.01.
Cell Line NCI-H2347 has a relative viability of 0.937.
Work on SK-LU-1 yielded a relative viability of 1.1.

Same assay, conditions: 2.53 µM
With NCI-H2085 the relative viability was 1.09.
For Calu-6, the relative viability was 0.997.
Work on HCC-366 yielded a relative viability of 0.935.
NCI-H1666 showed a relative viability of 1.06.
Work on NCI-H596 yielded a relative viability of 0.925.
LK-2 showed a relative viability of 0.998.
Work on NCI-H2087 yielded a relative viability of 0.898.
With SK-MES-1 the relative viability was 1.02.
With H3255 the relative viability was 0.978.
COR-L23 showed a relative viability of 0.995.
Cell Line COR-L 105 has a relative viability of 0.863.
For IA-LM, the relative viability was 0.887.
With LOU-NH91 the relative viability was 0.917.
In the case of NCI-H2170, the relative viability is reported as 0.867.
In the case of NCI-H2405, the relative viability is reported as 0.996.
Work on HOP-62 yielded a relative viability of 0.81.
HCC-44 was tested, and the relative viability was 0.998.
Work on A549 yielded a relative viability of 0.918.
With LU99A the relative viability was 0.919.
BEN gave a relative viability of 0.972.
For HARA, the relative viability was 1.03.
HCC-78 gave a relative viability of 0.998.
Cell Line NCI-H322M has a relative viability of 0.963.
NCI-H2009 showed a relative viability of 0.988.
Cell Line A-427 has a relative viability of 0.991.
Cell Line NCI-H661 has a relative viability of 0.983.
In the case of NCI-H1734, the relative viability is reported as 0.879.
NCI-H460 gave a relative viability of 0.957.
NCI-H2347 showed a relative viability of 1.02.
SK-LU-1 gave a relative viability of 1.05.

Same assay, conditions: 8 µM
Cell Line NCI-H2085 has a relative viability of 0.969.
Work on Calu-6 yielded a relative viability of 0.937.
HCC-366 showed a relative viability of 0.934.
For NCI-H1666, the relative viability was 1.04.
For NCI-H596, the relative viability was 1.01.
With LK-2 the relative viability was 0.943.
Work on NCI-H2087 yielded a relative viability of 0.931.
SK-MES-1 showed a relative viability of 0.986.
With H3255 the relative viability was 1.11.
COR-L23 gave a relative viability of 0.978.
In the case of COR-L 105, the relative viability is reported as 0.91.
Cell Line IA-LM has a relative viability of 0.999.
LOU-NH91 showed a relative viability of 0.96.
In the case of NCI-H2170, the relative viability is reported as 0.983.
NCI-H2405 showed a relative viability of 1.02.
HOP-62 showed a relative viability of 0.964.
In the case of HCC-44, the relative viability is reported as 0.942.
Work on A549 yielded a relative viability of 0.974.
Work on LU99A yielded a relative viability of 0.964.
For BEN, the relative viability was 1.01.
Work on HARA yielded a relative viability of 0.931.
HCC-78 showed a relative viability of 0.928.
NCI-H322M was tested, and the relative viability was 1.
Cell Line LCLC-97TM1 has a relative viability of 0.91.
Work on NCI-H2009 yielded a relative viability of 0.946.
For A-427, the relative viability was 1.03.
NCI-H661 gave a relative viability of 0.91.
For NCI-H1734, the relative viability was 0.995.
Cell Line NCI-H460 has a relative viability of 0.94.
Cell Line NCI-H2347 has a relative viability of 0.997.
Work on SK-LU-1 yielded a relative viability of 1.01.
